Measured values reported in ChEMBL document CHEMBL1909294, “Translating clinical findings into knowledge in drug safety evaluation--drug induced liver injury prediction system (DILIps)” (PLoS Comput Biol, 2011).

Assays:
Hepatotoxicity [1] = system: Hepatotoxicity;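 as to HepSE Combined Scores: combined hepatic side effect score as listed in the training data of the Drug Induced Liver Injury Prediction System (DILIps)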;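 as to HepSE bilirubinemia: bilirubinemia hepatic side effect score drawn from the DILIps training data, a prediction system for drug-induced liver injury; call rule not given here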;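 as to HepSE cirrhosis: cirrhosis hepatic side effect score taken from the DILIps (drug-induced liver injury prediction) training set; call rule not given here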;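 as to HepSE elevated liver function tests: hepatic side effect score for raised liver function tests, as recorded in the DILIps training set used for predicting drug-induced liver injury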;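 as to HepSE hepatomegaly: hepatic side effect score for hepatomegaly, taken from the training set of the DILIps drug-induced liver injury prediction system; call rule not given here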; as to HepSE liver disease: call rule not given here;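 as to HepSE liver fatty: hepatic side effect score for fatty liver, taken from the DILIps training set for predicting drug-induced liver injury; call rule not given here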
Hepatotoxicity [2] = system: Hepatotoxicity; remark: listed apart in the source;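 as to HepSE Combined Scores: combined hepatic side effect score as listed in the training data of the Drug Induced Liver Injury Prediction System (DILIps)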;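 as to HepSE bilirubinemia: bilirubinemia hepatic side effect score drawn from the DILIps training data, a prediction system for drug-induced liver injury; call rule not given here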;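 as to HepSE cirrhosis: cirrhosis hepatic side effect score taken from the DILIps (drug-induced liver injury prediction) training set; call rule not given here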;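 as to HepSE elevated liver function tests: hepatic side effect score for raised liver function tests, as recorded in the DILIps training set used for predicting drug-induced liver injury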;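 as to HepSE hepatomegaly: hepatic side effect score for hepatomegaly, taken from the training set of the DILIps drug-induced liver injury prediction system; call rule not given here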; as to HepSE liver disease: call rule not given here;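 as to HepSE liver fatty: hepatic side effect score for fatty liver, taken from the DILIps training set for predicting drug-induced liver injury; call rule not given here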
Hepatotoxicity [3] = system: Hepatotoxicity; remark: listed apart in the source;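 as to HepSE Combined Scores: combined hepatic side effect score as listed in the training data of the Drug Induced Liver Injury Prediction System (DILIps)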;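 as to HepSE bilirubinemia: bilirubinemia hepatic side effect score drawn from the DILIps training data, a prediction system for drug-induced liver injury; call rule not given here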;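 as to HepSE elevated liver function tests: hepatic side effect score for raised liver function tests, as recorded in the DILIps training set used for predicting drug-induced liver injury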;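 as to HepSE hepatomegaly: hepatic side effect score for hepatomegaly, taken from the training set of the DILIps drug-induced liver injury prediction system; call rule not given here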; as to HepSE liver disease: call rule not given here;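 as to HepSE liver fatty: hepatic side effect score for fatty liver, taken from the DILIps training set for predicting drug-induced liver injury; call rule not given here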
Hepatotoxicity [4] = system: Hepatotoxicity; remark: listed apart in the source;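 as to HepSE Combined Scores: combined hepatic side effect score as listed in the training data of the Drug Induced Liver Injury Prediction System (DILIps)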;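 as to HepSE bilirubinemia: bilirubinemia hepatic side effect score drawn from the DILIps training data, a prediction system for drug-induced liver injury; call rule not given here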;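 as to HepSE elevated liver function tests: hepatic side effect score for raised liver function tests, as recorded in the DILIps training set used for predicting drug-induced liver injury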;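 as to HepSE hepatomegaly: hepatic side effect score for hepatomegaly, taken from the training set of the DILIps drug-induced liver injury prediction system; call rule not given here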; as to HepSE liver disease: call rule not given here;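 as to HepSE liver fatty: hepatic side effect score for fatty liver, taken from the DILIps training set for predicting drug-induced liver injury; call rule not given here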
Hepatotoxicity [5] = system: Hepatotoxicity; remark: listed apart in the source; as to HepSE liver disease: call rule not given here
Hepatotoxicity [6] = system: Hepatotoxicity; remark: listed apart in the source; as to HepSE liver disease: call rule not given here
Hepatotoxicity [7] = system: Hepatotoxicity; remark: listed apart in the source
Hepatotoxicity [8] = system: Hepatotoxicity; remark: listed apart in the source
Hepatotoxicity [9] = system: Hepatotoxicity; remark: listed apart in the source
Hepatotoxicity [10] = system: Hepatotoxicity; remark: listed apart in the source
Hepatotoxicity [11] = system: Hepatotoxicity; remark: listed apart in the source
Hepatotoxicity [12] = system: Hepatotoxicity; remark: listed apart in the source
Hepatotoxicity [13] = system: Hepatotoxicity; remark: listed apart in the source
Hepatotoxicity [14] = system: Hepatotoxicity; remark: listed apart in the source

C[C@]12CCC(=O)C=C1CC[C@H]1[C@@H]3CC[C@](O)(C(=O)CO)[C@@]3(C)C[C@H](O)[C@@]12F [FLUDROCORTISONE]
0: HepSE_elevated liver function tests (Hepatotoxicity [1]) | HepSE_liver fatty (Hepatotoxicity [2]) | HepSE_liver disease (Hepatotoxicity [3]) | HepSE_hepatomegaly (Hepatotoxicity [4]) | HepSE_bilirubinemia (Hepatotoxicity [5]) | HepSE_hepatitis (Hepatotoxicity [6]) | HepSE_Combined Scores (Hepatotoxicity [7]) | HepSE_hepatic necrosis (Hepatotoxicity [8]) | HepSE_cirrhosis (Hepatotoxicity [9]) | HepSE_hepatic failure (Hepatotoxicity [10]) | HepSE_cholelithiasis (Hepatotoxicity [11]) | HepSE_cholecystitis (Hepatotoxicity [12]) | HepSE_liver function tests abnormal (Hepatotoxicity [13]) | HepSE_jaundice (Hepatotoxicity [14])

CCOC(=O)c1ncn2c1CN(C)C(=O)c1cc(F)ccc1-2 [FLUMAZENIL]
0: HepSE_elevated liver function tests (Hepatotoxicity [1]) | HepSE_liver fatty (Hepatotoxicity [2]) | HepSE_liver disease (Hepatotoxicity [3]) | HepSE_hepatomegaly (Hepatotoxicity [4]) | HepSE_bilirubinemia (Hepatotoxicity [5]) | HepSE_hepatitis (Hepatotoxicity [6]) | HepSE_Combined Scores (Hepatotoxicity [7]) | HepSE_hepatic necrosis (Hepatotoxicity [8]) | HepSE_cirrhosis (Hepatotoxicity [9]) | HepSE_hepatic failure (Hepatotoxicity [10]) | HepSE_cholelithiasis (Hepatotoxicity [11]) | HepSE_cholecystitis (Hepatotoxicity [12]) | HepSE_liver function tests abnormal (Hepatotoxicity [13]) | HepSE_jaundice (Hepatotoxicity [14])

C[C@@H]1C[C@H]2[C@@H]3C[C@H](F)C4=CC(=O)C=C[C@]4(C)[C@@]3(F)[C@@H](O)C[C@]2(C)[C@@]1(O)C(=O)CO [FLUMETHASONE]
0: HepSE_elevated liver function tests (Hepatotoxicity [1]) | HepSE_liver fatty (Hepatotoxicity [2]) | HepSE_liver disease (Hepatotoxicity [3]) | HepSE_hepatomegaly (Hepatotoxicity [4]) | HepSE_bilirubinemia (Hepatotoxicity [5]) | HepSE_hepatitis (Hepatotoxicity [6]) | HepSE_Combined Scores (Hepatotoxicity [7]) | HepSE_hepatic necrosis (Hepatotoxicity [8]) | HepSE_cirrhosis (Hepatotoxicity [9]) | HepSE_hepatic failure (Hepatotoxicity [10]) | HepSE_cholelithiasis (Hepatotoxicity [11]) | HepSE_cholecystitis (Hepatotoxicity [12]) | HepSE_liver function tests abnormal (Hepatotoxicity [13]) | HepSE_jaundice (Hepatotoxicity [14])

CC1(C)O[C@@H]2C[C@H]3[C@@H]4C[C@H](F)C5=CC(=O)C=C[C@]5(C)[C@H]4[C@@H](O)C[C@]3(C)[C@]2(C(=O)CO)O1 [FLUNISOLIDE]
0: HepSE_elevated liver function tests (Hepatotoxicity [1]) | HepSE_liver fatty (Hepatotoxicity [2]) | HepSE_liver disease (Hepatotoxicity [3]) | HepSE_hepatomegaly (Hepatotoxicity [4]) | HepSE_bilirubinemia (Hepatotoxicity [5]) | HepSE_hepatitis (Hepatotoxicity [6]) | HepSE_Combined Scores (Hepatotoxicity [7]) | HepSE_hepatic necrosis (Hepatotoxicity [8]) | HepSE_cirrhosis (Hepatotoxicity [9]) | HepSE_hepatic failure (Hepatotoxicity [10]) | HepSE_cholelithiasis (Hepatotoxicity [11]) | HepSE_cholecystitis (Hepatotoxicity [12]) | HepSE_liver function tests abnormal (Hepatotoxicity [13]) | HepSE_jaundice (Hepatotoxicity [14])

CC1(C)O[C@@H]2C[C@H]3[C@@H]4C[C@H](F)C5=CC(=O)C=C[C@]5(C)[C@@]4(F)[C@@H](O)C[C@]3(C)[C@]2(C(=O)CO)O1 [FLUOCINOLONE ACETONIDE]
0: HepSE_elevated liver function tests (Hepatotoxicity [1]) | HepSE_liver fatty (Hepatotoxicity [2]) | HepSE_liver disease (Hepatotoxicity [3]) | HepSE_hepatomegaly (Hepatotoxicity [4]) | HepSE_bilirubinemia (Hepatotoxicity [5]) | HepSE_hepatitis (Hepatotoxicity [6]) | HepSE_Combined Scores (Hepatotoxicity [7]) | HepSE_hepatic necrosis (Hepatotoxicity [8]) | HepSE_cirrhosis (Hepatotoxicity [9]) | HepSE_hepatic failure (Hepatotoxicity [10]) | HepSE_cholelithiasis (Hepatotoxicity [11]) | HepSE_cholecystitis (Hepatotoxicity [12]) | HepSE_liver function tests abnormal (Hepatotoxicity [13]) | HepSE_jaundice (Hepatotoxicity [14])

CC(=O)OCC(=O)[C@@]12OC(C)(C)O[C@@H]1C[C@H]1[C@@H]3C[C@H](F)C4=CC(=O)C=C[C@]4(C)[C@@]3(F)[C@@H](O)C[C@@]12C [FLUOCINONIDE]
0: HepSE_elevated liver function tests (Hepatotoxicity [1]) | HepSE_liver fatty (Hepatotoxicity [2]) | HepSE_liver disease (Hepatotoxicity [3]) | HepSE_hepatomegaly (Hepatotoxicity [4]) | HepSE_bilirubinemia (Hepatotoxicity [5]) | HepSE_hepatitis (Hepatotoxicity [6]) | HepSE_Combined Scores (Hepatotoxicity [7]) | HepSE_hepatic necrosis (Hepatotoxicity [8]) | HepSE_cirrhosis (Hepatotoxicity [9]) | HepSE_hepatic failure (Hepatotoxicity [10]) | HepSE_cholelithiasis (Hepatotoxicity [11]) | HepSE_cholecystitis (Hepatotoxicity [12]) | HepSE_liver function tests abnormal (Hepatotoxicity [13]) | HepSE_jaundice (Hepatotoxicity [14])

O=C1OC2(c3ccc(O)cc3Oc3cc(O)ccc32)c2ccccc21 [FLUORESCEIN]
0: HepSE_elevated liver function tests (Hepatotoxicity [1]) | HepSE_liver fatty (Hepatotoxicity [2]) | HepSE_liver disease (Hepatotoxicity [3]) | HepSE_hepatomegaly (Hepatotoxicity [4]) | HepSE_bilirubinemia (Hepatotoxicity [5]) | HepSE_hepatitis (Hepatotoxicity [6]) | HepSE_Combined Scores (Hepatotoxicity [7]) | HepSE_hepatic necrosis (Hepatotoxicity [8]) | HepSE_cirrhosis (Hepatotoxicity [9]) | HepSE_hepatic failure (Hepatotoxicity [10]) | HepSE_cholelithiasis (Hepatotoxicity [11]) | HepSE_cholecystitis (Hepatotoxicity [12]) | HepSE_liver function tests abnormal (Hepatotoxicity [13]) | HepSE_jaundice (Hepatotoxicity [14])

CC(=O)[C@@]1(O)CC[C@H]2[C@@H]3C[C@H](C)C4=CC(=O)C=C[C@]4(C)[C@@]3(F)[C@@H](O)C[C@@]21C [FLUOROMETHOLONE]
0: HepSE_elevated liver function tests (Hepatotoxicity [1]) | HepSE_liver fatty (Hepatotoxicity [2]) | HepSE_liver disease (Hepatotoxicity [3]) | HepSE_hepatomegaly (Hepatotoxicity [4]) | HepSE_bilirubinemia (Hepatotoxicity [5]) | HepSE_hepatitis (Hepatotoxicity [6]) | HepSE_Combined Scores (Hepatotoxicity [7]) | HepSE_hepatic necrosis (Hepatotoxicity [8]) | HepSE_cirrhosis (Hepatotoxicity [9]) | HepSE_hepatic failure (Hepatotoxicity [10]) | HepSE_cholelithiasis (Hepatotoxicity [11]) | HepSE_cholecystitis (Hepatotoxicity [12]) | HepSE_liver function tests abnormal (Hepatotoxicity [13]) | HepSE_jaundice (Hepatotoxicity [14])
